System: Escherichia coli
Experiment: detection of viable microbes in solid food (namul of spinach) with added Escherichia coli, CFDA and Phenol Red solutions at various pH
Type: cell-based
Details: pH 5 of the CFDA solution and the Phenol Red solution
Experimental: In a second example, detection of live microbes was conducted using solid food (namul of spinach) to which Escherichia coli were added. The treatment to extract the microbes from the solid food into liquid was carried out referring to “A Guide to Food Sanitation Test, Volume on Microorganisms” (in Japanese; published by Japan Food Hygiene Association, 1990). Ten grams of the solid food (namul of spinach) to which Escherichia coli (about 10^7) was added was aliquoted into a stomacher bag. (The stomacher bag is made of flexible plastic film such as polyethylene and sterilized by radiation. There is a compartment inside the stomacher bag created by a partition of non-woven fabric or a plastic film with a pore size of about 0.28 mm diameter, and a liquid component can be extracted excluding relatively large solid bodies from the compartment. The aliquot of the solid food is supplied with 90 mL of sterile phosphate buffer saline and crushed and dispersed using a stomacher. A stomacher is an apparatus for extracting live microbes contained in food to liquid. In the stomacher, the stomacher bag containing food is placed between a fixed plate and a paddle and the food is crushed and dispersed by squeezing the bag containing food while moving the paddle back and forth. […] Using the liquid, viable microbes were detected in a procedure similar to that in Example 1. […]

carboxyfluorescein diacetate [CFDA]
staining of viable microbes with the fluorescent dye: the viable microbes were not stained with the fluorescent dye

— US7582483B2, “Method of detecting viable cells” (Fuji Electric Holdings Co., Ltd., priority 2004, dated 2009)
